In paper PMC8600089, “The development of a high-affinity conformation-sensitive antibody mimetic using a biocompatible copolymer carrier (iBody)” (The Journal of Biological Chemistry, 2021):
Read-outs that look alike come from different tables or passages of the source. Each block holds one compound with its values, some of them ahead of it. Starred links: 1 amine or outer side, 2 acyl side, 3 side chain; linkers in the order of their positions; H or OH if unused. Positions of bridges follow the written chain, without caps; N, C: chain ends. Residues, ends and D or L forms follow the SMILES beside them. Groups on a side chain read outwards from the residue. *: point of attachment. PEG12 = NCCOCCOCCOCCOCCOCCOCCOCCOCCOCCOCCOCCOCCC(=O)O; Biotin = O=C1N[C@H]2[C@H](CS[C@H]2CCCCC(=O)*)N1; TBMB = c1c(C[*:1])cc(C[*:3])cc1C[*:2]

What was measured:
[1] = biological target: T1, recombinant extracellular part of PSMA (Homo sapiens, UniProt Q04609); assay: Competition ELISA: iBody 1 binding to PSMA versus PSMA inhibitors
T1 sequence (Q04609 44-750 limits assumed): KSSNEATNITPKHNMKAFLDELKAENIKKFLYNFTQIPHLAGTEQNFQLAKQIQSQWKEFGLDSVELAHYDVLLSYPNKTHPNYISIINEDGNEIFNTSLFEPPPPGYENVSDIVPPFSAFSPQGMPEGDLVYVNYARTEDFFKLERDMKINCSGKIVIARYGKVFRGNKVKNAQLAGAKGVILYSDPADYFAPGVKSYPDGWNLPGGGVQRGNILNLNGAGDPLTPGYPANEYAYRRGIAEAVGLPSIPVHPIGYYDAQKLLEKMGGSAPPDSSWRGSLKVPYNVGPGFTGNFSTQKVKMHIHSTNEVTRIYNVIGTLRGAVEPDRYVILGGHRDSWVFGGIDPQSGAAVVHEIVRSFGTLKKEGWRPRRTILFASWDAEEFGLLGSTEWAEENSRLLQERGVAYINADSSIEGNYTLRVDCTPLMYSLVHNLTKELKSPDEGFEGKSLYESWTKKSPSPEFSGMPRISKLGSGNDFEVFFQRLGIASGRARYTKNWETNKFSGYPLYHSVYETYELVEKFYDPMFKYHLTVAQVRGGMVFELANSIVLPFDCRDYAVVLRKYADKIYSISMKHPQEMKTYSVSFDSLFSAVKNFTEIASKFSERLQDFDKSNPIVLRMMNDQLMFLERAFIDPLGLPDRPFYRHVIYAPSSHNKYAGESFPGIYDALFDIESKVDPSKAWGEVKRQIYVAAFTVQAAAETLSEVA

[2] = biological target: PSMA (AviPSMA) (Homo sapiens, UniProt Q04609); assay: PSMA activity assay (HPLC, substrate pteroyl-di-L-glutamate); format: biochemical
Sequence of PSMA (AviPSMA) (Q04609 44-750 limits assumed): as above

[3] = biological target: T1, recombinant extracellular part of PSMA; assay: ELISA with immobilized PSMA

Compound: O=C(O)CCC(CP(=O)(O)O)C(=O)O (centres unmarked) [2-PMPA, 2-(phosphonomethyl)pentane-1,5-dioic acid]
- competition with binding of iBody 1 to PSMA on ELISA (in words) [1]: outcompeted

- IC50 ([2]; cell gives μM under a head in nM, 20-min incubation, 37 °C, n = 3): > 50 µM
- inhibition at 50 µM ([2]; in 50μM): 10%
- EC50 [3]: > 5 µM
Compound: CC(=O)N[C@H]1CSCc2cc3cc(c2)CSC[C@H](NC(=O)[C@H](CCC(=O)O)NC(=O)[C@H](CC(=O)O)NC(=O)[C@H](CC(=O)O)NC1=O)C(=O)N1CCC[C@H]1C(=O)N[C@@H](CC(=O)O)C(=O)N[C@@H](Cc1ccc(O)cc1)C(=O)N[C@@H](C(C)C)C(=O)N[C@H](C(=O)NCC(=O)NCC(=O)N[C@@H](CO)C(=O)NCC(=O)N[C@@H](CCCCNC(=O)CCOCCOCCOCCOCCOCCOCCOCCOCCOCCOCCOCCOCCNC(=O)CCCC[C@@H]1SC[C@@H]2NC(=O)N[C@@H]21)C(N)=O)CSC3 [Peptide 1] (Ac-CDDECPDYVCGGSGK([PEG12-Biotin])-NH2; linker 1-5-10 via TBMB)

- competition with binding of iBody 1 to PSMA on ELISA (in words) ([1]; iBody 1 (5 nM per legend), inhibitor pre-incubated 30 min, then iBody 60 min at RT, representative of >3 experiments, n = 3): outcompeted
Compound: phosphate

Compound: poly(HPMA-co-Ma-β-Ala-ATTO488-co-Ma-β-Ala-NH-ED-biotin) [iBody 3, reference compound]
- Ratio: value on layer with PSMA divided by value on layer lacking PSMA ([3]; 8 nM iBody): 0.9
- Ratio: value on layer with PSMA divided by value on layer lacking PSMA ([3]; 40 nM iBody): 1.3
- Ratio: value on layer with PSMA divided by value on layer lacking PSMA ([3]; 200 nM iBody): 1.1
- Ratio: value on layer with PSMA divided by value on layer lacking PSMA ([3]; 1000 nM iBody): 0.8
- Ratio: value on layer with PSMA divided by value on layer lacking PSMA ([3]; 5000 nM iBody): 0.8
- specific binding to immobilized PSMA compared with control layer (in words) ([3]; ELISA, layer with vs without PSMA): no specific binding
